Test results published in patent US20240166626A1, “Compounds and Methods for Preventing, Treating, or Ameliorating Airway Disease” (THOMAS JEFFERSON UNIVERSITY, priority 2021, published 2024).

Biological target: β2AR-Gs (Homo sapiens, UniProt P07550)
Assay: Gs activation by [35S]GTPγS binding, reconstituted β2AR-Gs in lipid bicelles
Assay type: biochemical
Settings: 10 μM DFPQ, 1 μM ISO, FIG. 5E
Method: FIGS. 5A-5E illustrate certain embodiments of the disclosure. FIG. 5A: Primary titration screening data of DFPQ. […] FIGS. 5C and 5D: […] Wells were read every 2 min post agonist addition. FIG. 5E: […] Bound [^35S]-GTPγS was collected by rapid filtration on GF/B filters, washed 4 times with 4 ml of cold GTPγS wash buffer and analyzed by liquid scintillation. […]® ADRB2 cells (DiscoveRx) were maintained with the AssayCompleteTM Cell Culture kit (DiscoveRx catalog #92-[…]). […] HEK 293 cells stably overexpressing β2AR included 250 μg/ml G418. Cells were incubated at 37° C. in a humidified incubator with 5% CO2. […] Cells were read every three minutes for 18 minutes on a PolarStar Optima plate reader (BMG) to establish peak signal. […] Luminescence was determined at room temperature (23-25° C.) on a PolarStar Optima plate reader (BMG). […] Relative assay bias was calculated from the ratio of normalized cAMP and arrestin recruitment responses. […] BRET was measured using a Tecan Infinite F500 microplate reader. […] Bound [35 S]GTPγS was collected by rapid filtration on GF/B filters, washed 4 times with 4 ml of cold GTPγS wash buffer and analyzed by liquid scintillation counting. […] Immunoprecipitated proteins were separated by SDS-PAGE and analyzed by western blot using a β2AR C-terminal tail or phospho-specific antibody. […] Band intensity was measured by densitometry using ImageJ. […]

Sequence of β2AR-Gs (P07550 whole entry): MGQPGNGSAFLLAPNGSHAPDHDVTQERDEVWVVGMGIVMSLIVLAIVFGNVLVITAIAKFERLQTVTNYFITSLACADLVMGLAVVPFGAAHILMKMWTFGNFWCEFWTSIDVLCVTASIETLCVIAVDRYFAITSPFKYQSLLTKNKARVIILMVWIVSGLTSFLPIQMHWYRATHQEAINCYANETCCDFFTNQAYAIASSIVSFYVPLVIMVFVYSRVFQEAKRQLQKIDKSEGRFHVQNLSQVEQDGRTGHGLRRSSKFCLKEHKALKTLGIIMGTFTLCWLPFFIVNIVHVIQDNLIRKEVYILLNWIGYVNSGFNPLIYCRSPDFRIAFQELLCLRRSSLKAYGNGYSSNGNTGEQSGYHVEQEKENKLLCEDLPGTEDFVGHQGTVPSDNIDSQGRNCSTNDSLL
Sequence of β2AR-Gs (P63092 whole entry partner): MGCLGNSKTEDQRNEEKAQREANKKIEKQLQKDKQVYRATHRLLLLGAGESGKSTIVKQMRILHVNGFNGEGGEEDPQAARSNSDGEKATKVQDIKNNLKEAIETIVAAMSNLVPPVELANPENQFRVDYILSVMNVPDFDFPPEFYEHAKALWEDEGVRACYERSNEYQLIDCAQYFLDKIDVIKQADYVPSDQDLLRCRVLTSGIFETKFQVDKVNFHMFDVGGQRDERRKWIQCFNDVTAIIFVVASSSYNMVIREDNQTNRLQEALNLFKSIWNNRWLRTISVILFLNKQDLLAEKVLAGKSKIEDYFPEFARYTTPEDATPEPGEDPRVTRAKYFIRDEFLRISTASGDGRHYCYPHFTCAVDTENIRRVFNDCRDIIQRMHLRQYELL
Sequence of β2AR-Gs (P62873 whole entry partner): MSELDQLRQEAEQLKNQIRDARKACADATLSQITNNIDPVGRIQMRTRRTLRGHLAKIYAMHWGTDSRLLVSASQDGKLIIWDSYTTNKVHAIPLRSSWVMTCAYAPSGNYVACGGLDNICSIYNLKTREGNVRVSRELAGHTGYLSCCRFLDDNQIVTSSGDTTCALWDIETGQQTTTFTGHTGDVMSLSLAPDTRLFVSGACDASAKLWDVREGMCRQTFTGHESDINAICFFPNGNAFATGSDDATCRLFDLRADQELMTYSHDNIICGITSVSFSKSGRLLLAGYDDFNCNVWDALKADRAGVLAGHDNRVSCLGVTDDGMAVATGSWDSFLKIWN
Sequence of β2AR-Gs (P59768 2-68 partner): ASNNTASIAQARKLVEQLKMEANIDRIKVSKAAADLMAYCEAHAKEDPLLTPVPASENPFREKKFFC

effect on ISO-dependent activation of purified Gs by the β2AR (GTPγS binding): no effect
SMILES: Fc1ccc(Nc2nc(NC3CCCCC3)c3ccccc3n2)cc1F [DFPQ, N^4-cyclohexyl-N^2-(3,4-difluorophenyl)quinazoline-2,4-diamine]
